The values that follow come from patent publication US20230349907A1, “BIOPROBES FOR LYSYL OXIDASES AND USES THEREOF” (Pharmaxis Ltd., priority 2020, published 2023).

The target of one test is Bovine LOX (Bos taurus (Bovine), UniProt P33072). The test is described as follows: LOX inhibition, peroxidase-coupled Amplex Red assay. The test is classed as biochemical. The following applies: 30 min preincubation at 37° C. The text has this: (§1) Method to Determine the Ability of Compounds of the Invention to Inhibit LOX and LOXL1-4 from Different Sources […] S., Trackman P. C. and Kagan H. M., Reaction of aortic lysyl oxidase with beta-aminoproprionitrile. J Biol Chem 1983; 258: 4331-4338). There are five LOX family members; these are LOX, LOXL1, LOXL2, LOXL3 and LOXL4. LOX and LOXL family members can be acquired as recombinant active proteins from commercial sources, or extracted from animal tissues like bovine aorta, tendons, pig skin; or prepared from cell cultures. The inhibitory effects of the compounds of the present invention were tested against the given LOX-LOXL preparation using a high-throughput coupled colorimetric method (Holt A. and Palcic M., A peroxidase-coupled continuous absorbance plate-reader assay for flavin monoamine oxidases, copper-containing amine oxidases and related enzymes. Nat. Protoc. 2006; 1: 2498-2505). The assay was developed using either 384 or 96 well format. […] Test compounds were dissolved in DMSO and tested in a Concentration Response Curve (CRC) with 11 data points, typically in the micromolar or nanomolar range after incubation with the enzyme for 30 min at 37° C. 25 μL of a reaction mixture containing twice the KM concentration of putrescine (Sigma Aldrich, e.g. 20 mM for LOX, or 10 mM for LOXL2 and LOXL3), 120 μM Amplex Red (Sigma Aldrich) and 1.5 U/mL horseradish peroxidase (Sigma Aldrich) prepared in 1.2 M urea, 50 mM sodium borate buffer (pH 8.2) were then added to the corresponding wells. The above volumes were doubled in the case of 96 well plates. The fluorescence (RFU) was read every 2.5 m n for 30 m u […], excitation 565 nm and emission 590 nm (Optima; BMG labtech). The slope of the kinetics for each well was calculated using MARS data analysis software (BMG labtech) and this value was used to deduce the IC50 value (Dotmatics).

In the next test the target is rhLOXL2 (Homo sapiens (Human), UniProt Q9Y4K0). Description: LOXL2 inhibition, peroxidase-coupled Amplex Red assay. In kind it is biochemical. The following applies: 30 min preincubation at 37° C.
Description: as §1

Structures can show the parent of a compound that is named as a salt. Where only a bound is given, the exact number is not on record here.

Bovine LOX, sequence (P33072 170-418): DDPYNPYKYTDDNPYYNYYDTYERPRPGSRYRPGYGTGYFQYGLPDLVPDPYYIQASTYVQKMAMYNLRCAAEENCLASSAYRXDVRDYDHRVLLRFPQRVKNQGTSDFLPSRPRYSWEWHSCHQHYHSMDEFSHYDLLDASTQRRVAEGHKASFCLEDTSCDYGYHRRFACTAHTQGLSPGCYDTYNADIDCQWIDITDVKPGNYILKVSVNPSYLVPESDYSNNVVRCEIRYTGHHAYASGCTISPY
rhLOXL2, sequence (Q9Y4K0 26-774): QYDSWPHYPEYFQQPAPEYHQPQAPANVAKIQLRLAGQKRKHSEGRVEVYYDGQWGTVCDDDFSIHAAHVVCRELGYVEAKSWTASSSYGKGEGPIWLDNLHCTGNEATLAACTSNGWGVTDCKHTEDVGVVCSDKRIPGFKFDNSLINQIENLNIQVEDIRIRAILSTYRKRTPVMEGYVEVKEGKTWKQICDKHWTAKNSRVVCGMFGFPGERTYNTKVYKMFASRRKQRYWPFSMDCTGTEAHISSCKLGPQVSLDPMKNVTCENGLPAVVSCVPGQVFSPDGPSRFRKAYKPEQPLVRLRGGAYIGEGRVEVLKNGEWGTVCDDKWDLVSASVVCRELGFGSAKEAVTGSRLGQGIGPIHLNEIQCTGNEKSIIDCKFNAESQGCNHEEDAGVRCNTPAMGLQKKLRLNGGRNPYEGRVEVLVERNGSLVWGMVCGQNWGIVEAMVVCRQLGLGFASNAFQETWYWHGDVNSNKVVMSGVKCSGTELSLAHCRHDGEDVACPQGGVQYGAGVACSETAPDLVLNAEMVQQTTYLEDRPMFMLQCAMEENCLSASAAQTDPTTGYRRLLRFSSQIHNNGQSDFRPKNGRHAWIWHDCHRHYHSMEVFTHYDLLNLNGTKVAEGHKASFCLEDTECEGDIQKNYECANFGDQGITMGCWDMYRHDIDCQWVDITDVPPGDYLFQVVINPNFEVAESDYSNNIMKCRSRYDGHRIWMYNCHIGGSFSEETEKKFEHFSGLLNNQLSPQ

For `NC/C=C(\F)CS(=O)(=O)c1ccccc1C(=O)NCCCCCNC(=O)CCCC[C@@H]1SC[C@@H]2NC(=O)N[C@@H]21` [Compound 1-8, 2-(((Z)-4-amino-2-fluorobut-2-en-1-yl)sulfonyl)-N-(5-(5-((3aS,4S,6aR)-2-oxohexahydro-1H-thieno[3,4-d]imidazol-4-yl)pentanamido)pentyl)benzamide hydrochloride], the IC50 on Bovine LOX and on rhLOXL2 was more than 300 nM throughout.
Take `NC/C=C(\F)CS(=O)(=O)c1cccc(NCCCc2cn(CCCCC[C@@H]3SC[C@@H]4NC(=O)N[C@@H]43)nn2)c1` [Compound 1-14, hydrochloride]: the IC50 on Bovine LOX and against rhLOXL2 was more than 300 nM in each case.
Regarding `Cc1c(-c2cccc(S(=O)(=O)N(C)C)c2)c2cc(C(=O)Nc3ccc4c(c3)n(CCn3cc(CCNC(=O)CCCC[C@@H]5SC[C@@H]6NC(=O)N[C@@H]65)nn3)c(=O)n4CCn3cc(CCNC(=O)CCCC[C@@H]4SC[C@@H]5NC(=O)N[C@@H]54)nn3)ccc2n1C/C(F)=C/CN` [Compound 1-4, N,N′-((((5-(1-((Z)-4-amino-2-fluorobut-2-en-1-yl)-3-(3-(N,N-dimethylsulfamoyl)phenyl)-2-methyl-1H-indole-5-carboxamido)-2-oxo-1H-benzo[d]imidazole-1,3(2H)-diyl)bis(ethane-2,1-diyl))bis(1H-1,2,3-triazole-1,4-diyl))bis(ethane-2,1-diyl))bis(5-((3aS,4S,6aR)-2-oxohexahydro-1H-thieno[3,4-d]imidazol-4-yl)pentanamide) hydrochloride], the figures for the IC50 on Bovine LOX and against rhLOXL2 were more than 300 nM and less than 300 nM, respectively.
`NC/C=C(\F)CS(=O)(=O)c1cccc(C(=O)NCCCCCNC(=O)CCCC[C@@H]2SC[C@@H]3NC(=O)N[C@@H]32)c1` [Compound 1-9, 3-(((Z)-4-amino-2-fluorobut-2-en-1-yl)sulfonyl)-N-(5-(5-((3aS,4S,6aR)-2-oxohexahydro-1H-thieno[3,4-d]imidazol-4-yl)pentanamido)pentyl)benzamide hydrochloride]: the IC50 against Bovine LOX and against rhLOXL2 was more than 300 nM in each case.
For `NC/C=C(\F)CS(=O)(=O)c1cccc(C(=O)Nc2cc(C(=O)N3CCN(C(=O)CCCC[C@@H]4SC[C@@H]5NC(=O)N[C@@H]54)CC3)cc(C(=O)N3CCN(C(=O)CCCC[C@@H]4SC[C@@H]5NC(=O)N[C@@H]54)CC3)c2)c1` [Compound 1-10, 3-(((Z)-4-amino-2-fluorobut-2-en-1-yl)sulfonyl)-N-(3,5-bis(4-(5-((3aS,4S,6aR)-2-oxohexahydro-1H-thieno[3,4-d]imidazol-4-yl)pentanoyl)piperazine-1-carbonyl)phenyl)benzamide hydrochloride], the half-inhibitory concentration (IC50) at Bovine LOX and at rhLOXL2 was more than 300 nM in each case.
In the case of `Cc1c(-c2cccc(S(=O)(=O)N(C)C)c2)c2cc(-c3cn(-c4cc(C(=O)NCCCCCNC(=O)CCCC[C@@H]5SC[C@@H]6NC(=O)N[C@@H]65)cc(C(=O)NCCCCCNC(=O)CCCC[C@@H]5SC[C@@H]6NC(=O)N[C@@H]65)c4)nn3)ccc2n1C/C(F)=C/CN` [Compound 1-6, 5-(4-(1-((Z)-4-amino-2-fluorobut-2-en-1-yl)-3-(3-(N,N-dimethylsulfamoyl)phenyl)-2-methyl-1H-indol-5-yl)-1H-1,2,3-triazol-1-yl)-N^1,N^3-bis(5-(5-((3aS,4S,6aR)-2-oxohexahydro-1H-thieno[3,4-d]imidazol-4-yl)pentanamido)pentyl)isophthalamide hydrochloride], the IC50 (usually the concentration at which inhibition is half-maximal) is more than 300 nM against Bovine LOX and less than 300 nM against rhLOXL2.
Take `NC/C=C(\F)CS(=O)(=O)c1cccc(OCCCc2cn(CCCCC[C@@H]3SC[C@@H]4NC(=O)N[C@@H]43)nn2)c1` [Compound 1-11, (3aS,4S,6aR)-4-(5-(4-(3-(3-(((Z)-4-amino-2-fluorobut-2-en-1-yl)sulfonyl)phenoxy)propyl)-1H-1,2,3-triazol-1-yl)pentyl)tetrahydro-1H-thieno[3,4-d]imidazol-2(3H)-one hydrochloride]: the values for the IC50 on Bovine LOX and on rhLOXL2 were more than 300 nM and less than 300 nM, respectively.
Consider `NC/C=C(\F)CS(=O)(=O)c1ccc(C(=O)NCc2cn(CCOCCOCCOCCNC(=O)CCCC[C@@H]3SC[C@@H]4NC(=O)N[C@@H]43)nn2)cc1` [Compound 1-7, 4-(((Z)-4-amino-2-fluorobut-2-en-1-yl)sulfonyl)-N-((1-(13-oxo-17-((3aS,4S,6aR)-2-oxohexahydro-1H-thieno[3,4-d]imidazol-4-yl)-3,6,9-trioxa-12-azaheptadecyl)-1H-1,2,3-triazol-4-yl)methyl)benzamide hydrochloride], for which the IC50 at Bovine LOX and against rhLOXL2 was more than 300 nM each time.
For the molecule `Cc1c(-c2cccc(S(=O)(=O)N(C)C)c2)c2cc(C(=O)Nc3ccc4c(c3)n(Cc3cn(CCOCCOCCOCCNC(=O)CCCC[C@@H]5SC[C@@H]6NC(=O)N[C@@H]65)nn3)c(=O)n4Cc3cn(CCOCCOCCOCCNC(=O)CCCC[C@@H]4SC[C@@H]5NC(=O)N[C@@H]54)nn3)ccc2n1C/C(F)=C/CN` [Compound 1-3, hydrochloride], the IC50 against Bovine LOX was more than 300 nM; against rhLOXL2 it was less than 300 nM.
For `Cc1c(-c2cccc(S(=O)(=O)N(C)C)c2)c2cc(C(=O)Nc3cc(C(=O)NCCCCCNC(=O)CCCC[C@@H]4SC[C@@H]5NC(=O)N[C@@H]54)cc(C(=O)NCCCCCNC(=O)CCCC[C@@H]4SC[C@@H]5NC(=O)N[C@@H]54)c3)ccc2n1C/C(F)=C/CN` [Compound 1-5, 5-(1-((Z)-4-amino-2-fluorobut-2-en-1-yl)-3-(3-(N,N-dimethylsulfamoyl)phenyl)-2-methyl-1H-indole-5-carboxamido)-N^1,N^3-bis(5-(5-((3aS,4S,6aR)-2-oxohexahydro-1H-thieno[3,4-d]imidazol-4-yl)pentanamido)pentyl)isophthalamide hydrochloride], the figures for the IC50 against Bovine LOX and at rhLOXL2 were more than 300 nM and less than 300 nM, respectively.
In the case of `Cc1c(-c2cccc(S(=O)(=O)N(C)C)c2)c2cc(C(=O)NCCCCCNC(=O)CCCC[C@@H]3SC[C@@H]4NC(=O)N[C@@H]43)ccc2n1C/C(F)=C/CN` [Compound 1-2, 1-((Z)-4-amino-2-fluorobut-2-en-1-yl)-3-(3-(N,N-dimethylsulfamoyl)phenyl)-2-methyl-N-(5-(5-((3aS,4S,6aR)-2-oxohexahydro-1H-thieno[3,4-d]imidazol-4-yl)pentanamido)pentyl)-1H-indole-5-carboxamide], the values for the IC50 at Bovine LOX and on rhLOXL2 were more than 300 nM and less than 300 nM, respectively.
Consider `NC/C=C(\F)CS(=O)(=O)c1cccc(N(CCCc2cn(CCCCC[C@@H]3SC[C@@H]4NC(=O)N[C@@H]43)nn2)CCCc2cn(CCCCC[C@@H]3SC[C@@H]4NC(=O)N[C@@H]43)nn2)c1` [Compound 1-13, (3aS,3a'S,4S,4'S,6aR,6a′R)-4,4′-(((((3-(((Z)-4-amino-2-fluorobut-2-en-1-yl)sulfonyl)phenyl)azanediyl)bis(propane-3,1-diyl))bis(1H-1,2,3-triazole-4,1-diyl))bis(pentane-5,1-diyl))bis(tetrahydro-1H-thieno[3,4-d]imidazol-2(3H)-one) hydrochloride], for which the IC50 against Bovine LOX and on rhLOXL2 was more than 300 nM in each case.
With `CN(C)S(=O)(=O)c1ccc(C(OCc2ccc(-n3cc(CNC(=O)CCOCCOCCOCCOCCNC(=O)CCCC[C@@H]4SC[C@@H]5NC(=O)N[C@@H]54)nn3)cc2)c2cn(C/C(F)=C/CN)nn2)cc1` (stereo partly drawn) [Compound 1-16, N-((1-(4-(((1-((Z)-4-amino-2-fluorobut-2-en-1-yl)-1H-1,2,3-triazol-4-yl)(4-(N,N-dimethylsulfamoyl)phenyl)methoxy)methyl)phenyl)-1H-1,2,3-triazol-4-yl)methyl)-1-(5-((3aS,4S,6aR)-2-oxohexahydro-1H-thieno[3,4-d]imidazol-4-yl)pentanamido)-3,6,9,12-tetraoxapentadecan-15-amide hydrochloride], the figures for the concentration for half-maximal inhibition (IC50) against Bovine LOX and on rhLOXL2 were more than 300 nM and less than 300 nM, respectively.
